Reference: US20090054338A1, “Synergisms between repartitioning and immunomodulating compounds” (priority 2007, published 2009)

How the values were obtained:
barnacle naupii = conditions: cited from earlier work
[1] = tested on: adrenergic beta-2 receptors; test: Down-regulation of adrenergic beta-2 receptors, receptor binding on adipocytes; type: in vivo; conditions: rats
From the text: The populations of adrenergic beta-2 receptors on cells (adipocytes) from rats are studied.

mice = test: Stress-induced mortality (modified physostigmine-induced lethality test); type: in vivo
From the text: A modification of the physostigmine-induced lethality test that successfully was used for testing of sedation by Schering in the loratadine project (Villani F. J., et al., U.S. Pat. No. 4,659,716, 1987) and by Sepracor in the desloratadine project (Aberg, G. et al. U.S. Pat. No. 5,595,997) was used. In short, mice that previously had not been housed together, suffer from severe stress when placed together (n=10) in a new environment, such as a small cage with which they are not familiar. […] Similarly, increased stress by ractopamine in livestock animals has been reported by Marchant-Forde et al., 2003. […] The number of surviving mice was counted 30 minutes after the animals had been placed in the test-cage, which was 60 min after the administration of ractopamine.

newborn calves = test: In vivo study in newborn calves (survival to weaning); parameters: species or system cattle
Protocol: The present study was performed at a farm with a high rate of mortality of newborn calves from Cryptosporidiosis and upper respiratory infections.
Two groups of 13 newborn calves were studied. All animals were given milk replacement and beta 1.3/1.6 D-glucan was added to the milk replacement for the second group.

**Q.** For `CC(C)(C)NCC(O)c1ccc(O)c(CO)c1` (racemic) [salbutamol], which LD50 (barnacle naupii) is on record?
**A.** approximately 1.8 μg/ml

**Q.** And the “adrenergic beta-2 receptor population on adipocytes” value ([1]; one and two weeks continuous s.c. administration by Alza osmotic pumps)?
**A.** down-regulated

**Q.** Which lethality (mice; stressed grouped mice (n=10), 1.0 mg/kg s.c.) does the source give for `CNC(=O)Oc1ccc2c(c1)[C@]1(C)CCN(C)[C@@H]1N2C` [physostigmine] here?
**A.** ~100%

**Q.** Which stress (mice; grouped mice in unfamiliar cage) does the source give for `CC(CCc1ccc(O)cc1)NCC(O)c1ccc(O)cc1` (stereo not drawn) [ractopamine] here?
**A.** increased the stress

**Q.** And the mortality (mice; mice given a sub-lethal dose of physostigmine)?
**A.** increased mortality

**Q.** With beta 1.3/1.6 D-glucan [Agrastim®] as the molecule, how does the “stress and stress-induced mortality in ractopamine-treated animals” value (mice; mice pretreated orally daily for five days, survivors counted 30 min after placing in test-cage, 60 min after ractopamine) read?
**A.** significantly decreased stress and stress-induced mortality

**Q.** What about the survival of calves (newborn calves; 8 weeks treatment in milk replacement, control 7 out of 13) of the same molecule?
**A.** 12 out of 13

**Q.** What about the “Calves Weaned” value (newborn calves; 13 calves born, 500 mg day 1, 250 mg/day day 2-56 in milk replacement, farm with high calf mortality) of the same molecule?
**A.** 12

**Q.** What about the “effect on salbutamol-induced down-regulation of adrenergic beta-2 receptors” value ([1]; glucan given one week before pump implantation and continuously thereafter) of the same molecule?
**A.** decreased or inhibited
